Assay results: US6391891B1, “Bicyclic compounds as ligands for 5-HT1 receptors” (SmithKline Beecham plc, priority 1997, dated 2002)

Experiments:
5-HT1A receptors = target: T1, 5-HT1A receptors (Homo sapiens, UniProt P08908); assay: 5-HT1A receptor radioligand binding assay ([3H]-8-OH DPAT); conditions: HEK 293 cells expressing 5-HT1A receptors; [3H]-8-OH DPAT 1 nM; 37° C., 45 minutes; read-out: pKi at 5-HT1A receptors (converted)
T1 construct: expressed in transfected cells; host or cells: HEK 293 cells
T1 sequence (P08908 1-422): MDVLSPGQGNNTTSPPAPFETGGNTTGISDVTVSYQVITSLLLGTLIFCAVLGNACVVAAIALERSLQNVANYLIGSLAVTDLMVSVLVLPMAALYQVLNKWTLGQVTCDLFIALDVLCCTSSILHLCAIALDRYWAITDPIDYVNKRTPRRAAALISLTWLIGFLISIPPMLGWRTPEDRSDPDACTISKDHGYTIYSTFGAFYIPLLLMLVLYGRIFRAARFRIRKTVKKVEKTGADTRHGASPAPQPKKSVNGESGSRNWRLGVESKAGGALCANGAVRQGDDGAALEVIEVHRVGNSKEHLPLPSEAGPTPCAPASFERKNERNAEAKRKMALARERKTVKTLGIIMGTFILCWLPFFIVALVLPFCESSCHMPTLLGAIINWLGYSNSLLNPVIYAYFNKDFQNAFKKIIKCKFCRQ
Method: (§1) The affinities of the compounds of this invention for the 5HT1A, 5-HT1B and 5-HT1D receptors can be determined by the following radioligand binding assay. HEK 293 cells expressing 5-HT1A receptors (4×10^7/ml) are homogenised in Tris buffer and stored in 1 ml aliquots. CHO cells expressing 5-HT1B receptors (4×10^7 cells/ml) are homogenised in Tris buffer and stored in 1.5 ml aliquots. CHO cells expressing 5-HT1D receptors (0.563×10^8/ml) are homogenised in Tris buffer and stored in 1 ml aliquots. 0.4 ml of a cell suspension is incubated with [^3H]-5-HT (4 nM) for 5-HT1B/1D receptors and [^3H]-8-OH DPAT (1 nM) for 5-HT1A receptors in Tris Mg HCl buffer (pH 7.7) and test drug, at 37° C. for 45 minutes. Each test drug is tested at 10 concentrations (0.01 mM to 0.3 nM final concentration), with non-specific binding defined using 0.01 mM 5-HT. The total assay volume is 0.5 ml. Incubation is stopped by rapid filtration using a Packard Filtermate (filters pre-soaked in 0.3% polyethylenimine) and radioactivity measured by Topcount scintillation counting. pKi values are calculated from the IC50 generated by an iterative least squares curve fitting programme.
(§2) The affinities of the compounds of this invention were determined by methods described above.
(§3) 5-HT1A, 5-HT1B and 5-HT1D Receptor Binding

5-HT1D receptors = target: T2, 5-HT1D receptors (Homo sapiens, UniProt P28221); assay: 5-HT1D receptor radioligand binding assay ([3H]-5-HT); conditions: CHO cells expressing 5-HT1D receptors; [3H]-5-HT 4 nM; 37° C., 45 minutes; read-out: pKi at 5-HT1D receptors (converted)
T2 construct: expressed in transfected cells; host or cells: CHO cells
T2 sequence (P28221 whole entry): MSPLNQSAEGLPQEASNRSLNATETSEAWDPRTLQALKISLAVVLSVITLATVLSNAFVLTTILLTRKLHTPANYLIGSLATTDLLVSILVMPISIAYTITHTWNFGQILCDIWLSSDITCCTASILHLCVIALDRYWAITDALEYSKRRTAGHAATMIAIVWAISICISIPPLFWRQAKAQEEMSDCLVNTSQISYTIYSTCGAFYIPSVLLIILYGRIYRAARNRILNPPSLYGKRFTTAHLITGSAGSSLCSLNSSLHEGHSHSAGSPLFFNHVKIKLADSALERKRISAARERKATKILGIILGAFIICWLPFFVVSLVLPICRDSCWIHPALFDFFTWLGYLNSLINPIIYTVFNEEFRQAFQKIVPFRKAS
Method: as §1, §2, §3

5-HT1B receptors = target: T3, 5-HT1B receptors (Homo sapiens, UniProt P28222); assay: 5-HT1B receptor radioligand binding assay ([3H]-5-HT); conditions: CHO cells expressing 5-HT1B receptors; [3H]-5-HT 4 nM; 37° C., 45 minutes; read-out: pKi at 5-HT1B receptors (converted)
T3 construct: expressed in transfected cells; host or cells: CHO cells
T3 sequence (P28222 whole entry): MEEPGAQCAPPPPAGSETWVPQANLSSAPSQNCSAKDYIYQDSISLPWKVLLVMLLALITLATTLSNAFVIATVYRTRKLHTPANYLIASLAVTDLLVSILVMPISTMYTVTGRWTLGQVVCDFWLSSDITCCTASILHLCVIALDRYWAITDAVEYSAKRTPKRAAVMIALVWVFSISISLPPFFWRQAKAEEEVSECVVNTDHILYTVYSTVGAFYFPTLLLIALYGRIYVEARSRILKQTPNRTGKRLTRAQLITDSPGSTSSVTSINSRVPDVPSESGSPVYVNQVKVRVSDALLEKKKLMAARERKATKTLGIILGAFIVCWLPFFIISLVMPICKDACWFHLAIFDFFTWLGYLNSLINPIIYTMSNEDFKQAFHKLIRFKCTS
Method: as §1, §2, §3

Measured: Ki

CN1CCC(c2c[nH]c3ccc(NC(=O)Nc4ccc(-c5ccncc5)c5ccccc45)cc23)CC1 [Example 1, N-[3-(1-Methylpiperdin-4-yl)indol-5-yl]-N′-[4-(pyridin-4-yl)naphth-1-yl]-urea]
< 10 nM: all assays above

CN1CCC(c2c[nH]c3ccc(NC(=O)Nc4ccc(-c5ccncc5)c(Cl)c4Cl)cc23)CC1 [Example 3, N-[2,3-Dichloro-4-(pyridin-4-yl)phenyl]-N′-[3-(1-methylpiperidin-4-yl)indol-5-yl]-urea]
< 10 nM: all assays above

CN1CCC(c2c[nH]c3ccc(NC(=O)Nc4ccc(-c5ccncc5)cc4Cl)cc23)CC1 [Example 4, N-[2-Chloro-4-(pyridin-4-yl)phenyl]-N′-[3-(1-methylpiperidin-4-yl)indol-5-yl]-urea]
< 10 nM: all assays above

CN1CCC(c2c[nH]c3ccc(NC(=O)Nc4ccc(-c5ccncc5)c(Cl)c4)cc23)CC1 [Example 8, N-[3-Chloro-4-(pyridin-4-yl)phenyl]-N′-[3-(1-methylpiperidin-4-yl)indol-5-yl]-3-urea]
< 10 nM: all assays above

CN1CC=C(c2csc3ccc(NC(=O)Nc4ccc(-c5ccncc5)c(Cl)c4)cc23)CC1 [Example 9, N-[3-Chloro-4-(pyridin-4-yl)phenyl]-N′-[3-(1-methyl-1,2,5,6-tetrahydropyridin-4-yl)benzo[b]thiophen-5-yl]-urea]
< 10 nM: all assays above

CN1CC=C(c2csc3ccc(NC(=O)Nc4ccc(-c5ccncc5)c5ccccc45)cc23)CC1 [Example 10, N-[3-(1-Methyl-1,2,5,6-tetrahydropyridin-4-yl)benzo[b]thiophen-5-yl]-N′-[4-(pyridin-4-yl)naphth-1-yl]-urea]
< 10 nM: all assays above

CN1CCC(c2csc3ccc(NC(=O)Nc4ccc(-c5ccncc5)c5ccccc45)cc23)CC1 [Example 12, N-[3-(1-Methylpiperidin-4-yl)benzo[b]thiophen-5-yl]-N′-[-4-(pyridin-4-yl)naphth-1-yl]-urea]
< 10 nM: all assays above
